Here are results for three compounds from PMC3543460, “Structure-Activity Relationships of the Antimicrobial Peptide Arasin 1 — And Mode of Action Studies of the N-Terminal, Proline-Rich Region” (PLoS ONE, 2013).

The test system of assay [1] is E. coli HB101 constitutively expressing the luxCDABE operon. Description: Cell viability assay (luxCDABE luminescence). Type of assay: cell-based, Escherichia coli. The following applies: 50% MH, OD600 0.2, 30°C. The method, then:
E.coli HB101 was transformed with the plasmid pCGLS-11 to enable constitutive bacterial luciferase expression from the luxCDABE operon. The resulting strain was used for cell viability assays as follows. An overnight culture in MH medium with ampicillin (100 µg/ml) was pelleted at 3000×g for 10 min and washed in MH medium before re-suspending the cells in 50% MH medium with a final OD600 of approximately 0.2. After 30 min of incubation at 30°C the cells were again adjusted to an OD600 of 0.2. An aliquot of 95 µl of bacterial solution was dispensed into each well of a black 96 well microtiter plate with transparent bottom (Falcon, Bredford, MA, USA). To achieve the indicated concentrations, a multi-channel pipette was used to add 5 µl of a two-fold dilution series of peptide solution in water to 8 wells simultaneously. The plate was loaded into a Perkin-Elmer Envision microtiter plate reader immediately after addition of the peptide (arasin 1(1–23), PR-39(1–26) or cecropin P1) and the measurement started 30 sec later because of handling events and 2 seconds of shaking inside the plate reader. Light production and growth (OD595) of the sensor bacteria was followed for 3 h under repeated shaking cycles before each measurement at 30°C.

Assay [2] relates to E. coli HB101. The assay is described as follows: Membrane integrity assay II (propidium iodide, flow cytometry). Type of assay: cell-based, Escherichia coli. The following applies: 50% MH, 37°C, four independent experiments. As to the method:
The effect of arasin 1(1–23) and cecropin P1 on membrane permeabilization was also studied by measuring the percentage of propidium iodide (PI) positive cells by flow cytometry. Samples of 1×10^6 cells/ml of E. coli HB101 were incubated in 50% MH with peptides at 37°C for different time span. After incubation, PI (Sigma Aldrich, Saint Louis, MO, USA) was added to the peptide-treated bacteria at a final concentration of 10 µg/ml. The cells were analyzed after 4 min of incubation with PI at 37°C in the flow cytometer as described.
For orientation: In flow cytometry, cells or beads pass a laser one at a time.

A short description of another assay: Chitin-binding assay. The note with it: 50 µg peptide with 40 mg chitin, washes with 0.1 M NaCl, 1 M NaCl, 10% acetic acid at 95°C; RP-HPLC of supernatants. The method, then: The ability of arasin 1(1–23) and arasin 1(20–37)-Acm to bind chitin was estimated using a modified protocol from Kawabata et al.. Briefly, 50 µg of peptide was incubated with 40 mg chitin in 800 µl buffer (50 mM Tris-HCl, 0.1 M NaCl, pH 8.0). Sequentially chitin was incubated at RT with 800 µl buffer containing 0.1 M NaCl and 1 M NaCl, respectively, and finally at 95°C with 10% acetic acid. All incubations were performed for 10 min, and chitin was collected by centrifugation at 1000×g for 5 min between each step. Supernatants were subjected to RP-HPLC using a Sunfire™ Prep C18 column (Waters; 100 Å 5 µm; 10×250 mm, MA, USA), with a linear gradient from 8 to 60% acetonitrile and a flow of 3 ml/min over 60 min. Absorbance was monitored at 220 nm and the resulting chromatograms were compared.

The next assay deals with S. cerevisiae spp. Type of assay: cell-based, Saccharomyces cerevisiae. The following applies: 48 h. As to the method: (§1) Escherichia coli (ATCC 25922), E. coli HB101, Pseudomonas aeruginosa (ATCC 27853), Staphylococcus aureus (ATCC 9144) and Corynebacterium glutamicum (ATCC 13032) were grown at 37°C in Mueller Hinton agar (MH; Difco Laboratories, Detroit, USA). The yeasts Candida albicans (ATCC 10231) and Saccharomyces cerevisiae spp and the mold Botrytis cinerea 101 [33] were cultivated on potato dextrose agar supplemented with 2% glucose at room temperature (RT).
(§2) Fungal spores were dissolved in potato dextrose broth (Difco, Lawrence, KS, USA) and the cell concentration was determined and adjusted after counting in a Bürker chamber. Botrytis cinerea was filtered through a piece of cotton before counting. An aliquot of 50 µl of fungal spores (final concentration 2×10^5 spores/ml) were inoculated in 96-well Nunclon™ microtitre plates (Nagle Nunc Int. Roskilde, Denmark) along with 50 µl of synthetic peptide dissolved in Milli-Q water. Cultures were grown in a dark moist chamber without shaking at 20°C for S. cerevisiae and B. cinerea, and at 37°C for C. albicans. Growth inhibition was determined microscopically after 48 h of incubation. Inhibitory concentrations (IC50) was defined as the lowest concentration tested which yielded less than 50% visible growth compared to the growth control (fungi). Each peptide was tested in parallels in three individual runs for the antimicrobial assays.

The test system of assay [3] is E. coli HB101. Description: Bactericidal assay (killing kinetics, colony counts). Type of assay: cell-based, Escherichia coli. The following applies: 50% MHB, 1×10^6 CFU/ml, 37°C. The method, then:
During incubation, aliquots were removed at different time intervals, washed in buffered high salt solution (10 mM Na-phosphate, 400 mM NaCl, 10 mM MgCl2), diluted and plated on MH plates. The number of bacterial CFU was determined after approximately 48 h of incubation at 37°C.

Assay [4] deals with E. coli HB101 expressing eukaryotic luciferase lucGR. The assay is described as follows: Membrane integrity assay I (D-luciferin influx, lucGR luciferase). Type of assay: cell-based, Escherichia coli. An excerpt:
Escherichia coli HB101 was transformed with the plasmids pCSS962 and the helper plasmid pGB3 to allow for constitutive expression of the eukaryotic luciferase gene lucGR. The resulting strain was isogenic to the other E. coli strains used. The membrane permeabilization assay used is a modification of the protocol described by Virta et al.. The assay is based on E. coli cells, expressing a eukaryotic luciferase, depending on externally added D-luciferin as a substrate to emit light. At neutral pH the bacterial cytoplasmic membrane efficiently prevents uptake of external D-luciferin. However, disruption of the membrane by e.g. a membrane active AMP enhances D-luciferin influx and thereby induces bacterial light emission. Preparation of the cells and the assay plate was done as described for the viability assay above. However, chloramphenicol (30 µg/ml) was added in addition to ampicillin to the overnight culture, and D-luciferin sodium-salt (Biosynth, Staad, Switzerland) was added to the bacteria to final concentration of 1 mM. To allow shorter measurement intervals, only 8 wells were measured simultaneously. Arasin 1(1–23), PR-39(1–26) and cecropin P1 were tested for their membrane disruptive capacity.

In a further assay the test system is S. aureus ATCC 9144. Type of assay: cell-based, Staphylococcus aureus. The note with it: ATCC 9144, 24 h. As to the method:
as §1
(§3) Determination of the MIC against bacteria was performed by continuous monitoring of bacterial growth using a Bioscreen C microbiology reader (Labsystems Oy, Helsinki, Finland). The synthetic peptides were tested for antibacterial and antifungal activity at final concentrations (prepared from serial two-fold dilutions) ranging from 0.2 µM to 100 µM. The test was performed in 100-well flat-bottomed honeycomb plates, in which 50 µl peptide solution was incubated with 50 µl of a suspension of an actively growing culture of bacteria diluted to a starting concentration of 2.5×10^5 CFU/ml in Mueller Hinton Broth (MHB). The growth chamber was maintained at 37°C during the incubation period. The absorbance was measured by a turbidometric method with vertical light photometry and a wide band filter (420–580 nm). MIC was defined as the lowest concentration resulting in no visible bacterial growth after 24 h.

The next assay concerns P. aeruginosa ATCC 27853. Type of assay: cell-based, Pseudomonas aeruginosa. The note with it: ATCC 27853, 24 h. The method, then: as §1, §3
A further assay deals with E. coli ATCC 25922. Type of assay: cell-based, Escherichia coli. The note with it: ATCC 25922, 24 h. The method, then: as §1, §3
In the next assay the test system is B. cinerea 101. Type of assay: cell-based, Botrytis cinerea. The note with it: 101, 48 h. The method, then: as §1, §2
The next assay relates to C. albicans ATCC 10231. Type of assay: cell-based, Candida albicans. The note with it: ATCC 10231, 48 h. The method, then: as §1, §2
A further assay relates to C. glutamicum ATCC 13032. Type of assay: cell-based, Corynebacterium glutamicum. The following applies: ATCC 13032, 24 h. As to the method:
as §1, §3

In another assay the test system is E. coli. Description: Antimicrobial activity at varied MH concentration. Type of assay: cell-based, Escherichia coli. The note with it: results not shown. An excerpt:
In contrast to the results from E. coli and P. aeruginosa, the C-terminal part of arasin 1(1–23) alone arasin 1(7–23) and 1(9–23) inhibits C. glutamicum and all the fungi. At the same time this antibacterial and antifungal activity is strictly dependent on a fragment between aa 13–23. This indicates a somewhat different mode of action for Gram- negative and Gram-positive bacteria, respectively. Likewise the mode of action against fungi is likely different. It is tempting to speculate that the N-terminal 5–10 amino acids might be involved in arasin 1(1–23) transfer across the outer membrane while the C-terminal part might bind the molecular target which is responsible for growth inhibition at low concentrations. The antimicrobial assays were all performed in MH or potato dextrose medium at a final concentration of 50% strength for bacteria and fungi, respectively. […] This means that the peptides are very sensitive to medium composition, and perhaps also salinity and/or ionic strength. […] In some studies, the use of diluted or poor medium instead of rich medium in MIC and mode of action studies is claimed to increase the sensitivity of the assays, [47]. The reasons of the medium-dependence have not been further evaluated, and 50% MH was used as the standard medium for the mode of action studies.

Converted amounts (≈) assume the structure as drawn. Peptide text beside a SMILES is read from it. * marks the point of attachment. Acm = CC(=O)NC* Where only a bound is given, the exact number is not on record here.

In general, IC50 refers to the concentration that inhibits the measured activity by half. In the case of `CC[C@H](C)[C@H](NC(=O)[C@@H]1CCCN1C(=O)[C@H](CCCCN)NC(=O)[C@@H]1CCCN1C(=O)[C@H](CCCNC(=N)N)NC(=O)CNC(=O)[C@@H]1CCCN1C(=O)[C@H](Cc1ccccc1)NC(=O)[C@@H]1CCCN1C(=O)[C@H](CCCNC(=N)N)NC(=O)[C@@H]1CCCN1C(=O)[C@H](CCCNC(=N)N)NC(=O)CNC(=O)[C@@H]1CCCN1C(=O)[C@H](CO)NC(=O)[C@@H]1CCCN1C(=O)[C@H](Cc1c[nH]c2ccccc12)NC(=O)[C@H](CCCNC(=N)N)NC(=O)[C@@H](N)CO)C(=O)N[C@@H](Cc1ccccc1)C(=O)N[C@@H](CCCNC(=N)N)C(=O)N1CCC[C@H]1C(=O)N[C@@H](CCCNC(=N)N)C(=O)O` [Arasin 1(1–23)] (H-SRWPSPGRPRPFPGRPKPIFRPR-OH; N-terminus and C-terminus assumed), the “luminescence compared to untreated bacteria” value is given as “more than 60%” in [1] (after 10 min, at 10-fold MIC) and “more than 80%” in assay [1] (at MIC values (5 µM)). Also, the “PI-positive (permeabilized) cells” value was 30% in the assay with E. coli HB101 [2] (peptide at 5×MIC (20 µM), 1×10^6 cells/ml); “approximately 75%” with E. coli HB101 [2] (peptide at 10×MIC (40 µM), after 15 min of treatment); about 10% in the assay with E. coli HB101 [2] (peptide at MIC (4 µM), 1×10^6 cells/ml, background subtracted). The binding to chitin result in the assay “Chitin-binding assay” was “strong binding of the peptide to chitin”. For the same compound, the IC50 with S. cerevisiae spp., in the assay with B. cinerea 101 and in the assay on C. albicans ATCC 10231 was 12.5 µM in each case. For the same compound, the “effect on viable cell count at MIC” value in the assay with E. coli HB101 [3] (4 µM (MIC), up to 4 h) is “inhibition of bacterial growth without decreasing the number of viable cells”. Further, the “reduction of viable E. coli cells” value in the assay with E. coli HB101 [3] (20 µM (5×MIC), after 30 min) is on record as 1 log. Further, the “light emission (D-luciferin influx) at concentrations above MIC” value in assay [4] (1 mM D-luciferin) is “doubling of light emission”. Also, in assay [4] (compared with cecropin P1 treatment, 1 mM D-luciferin), the “light emission (D-luciferin influx) at concentration around MIC” value is given as “Minimal amounts of light”. For the same compound, the “time at which permeabilization peaked” value in assay [4] (high concentrations of peptide) is recorded as “approximately 10 min”. In addition, in the assay on S. aureus ATCC 9144, the “MIC S. aureus ATCC 9144” value is over 100 µM. In the assay on P. aeruginosa ATCC 27853, the “MIC P. aeruginosa ATCC 27853” value is on record as 12.5 µM (≈ 34.3 µg/mL). In the assay with E. coli ATCC 25922, the “MIC E. coli ATCC 25922” value worked out at 6.3 µM (≈ 17.3 µg/mL). The “MIC C. glutamicum ATCC 13032” value in the assay on C. glutamicum ATCC 13032 was 0.8 µM (≈ 2.19 µg/mL).
Regarding `CC(=O)NCSC[C@H](NC(=O)[C@H](CC(N)=O)NC(=O)[C@H](CSCNC(C)=O)NC(=O)[C@@H]1CCCN1C(=O)[C@H](CCCNC(=N)N)NC(=O)[C@@H]1CCCN1C(=O)[C@H](CCCNC(=N)N)NC(=O)[C@@H](N)Cc1ccccc1)C(=O)N[C@@H](Cc1ccc(O)cc1)C(=O)N[C@@H](C)C(=O)N1CCC[C@H]1C(=O)N1CCC[C@H]1C(=O)N[C@@H](CSCNC(C)=O)C(=O)N1CCC[C@H]1C(=O)N[C@@H](CSCNC(C)=O)C(=O)N[C@@H](CC(=O)O)C(=O)N[C@@H](CCCNC(=N)N)C(=O)N[C@@H](Cc1c[nH]c2ccccc12)C(=O)O` [Arasin 1(20–37)-Acm] (H-FRPRPC(Acm)NC(Acm)YAPPC(Acm)PC(Acm)DRW-OH; N-terminus and C-terminus assumed), in the assay “Chitin-binding assay”, the binding to chitin result was “did not bind tightly to chitin”. Also, the IC50 in the assay with S. cerevisiae spp., in the assay with B. cinerea 101 and with C. albicans ATCC 10231 was over 100 µM each time. Further, the “MIC S. aureus ATCC 9144” value against S. aureus ATCC 9144 is over 100 µM. Moreover, in the assay on P. aeruginosa ATCC 27853, the “MIC P. aeruginosa ATCC 27853” value is on record as over 100 µM. In addition, the “MIC E. coli ATCC 25922” value in the assay with E. coli ATCC 25922 is reported as over 100 µM. For the same compound, in the assay on C. glutamicum ATCC 13032, the “MIC C. glutamicum ATCC 13032” value was over 100 µM.
For “Bac7(1–16): fragment of the mammalian proline-rich antimicrobial peptide Bac7 (RRIRPRPPRLPRPRPR; Bactenecin 7; UniProt P19661 131-146, looked up, fragment)”, the “change of antimicrobial activity against E. coli by varying the MH concentration” value in the assay with E. coli is on record as “did not change the antimicrobial activity”.
